Test results taken from article PMC6297231 (Nature Communications, 2018).
Where two headings read alike, the source gives them in different places.

Key:
SKLU1 = assay: Cell viability assay; assay type: cell-based; details: Homo sapiens, SK-LU-1, 24 h; SKLU1 (Lung); read-out: AZD5991 24h GI50
Protocol: (§1) Cells were plated at 3000 cells/well in 384-well white plates in corresponding cell growth media. […] Caspase-3/7 activation was subsequently determined using a Caspase-Glo 3/7 Reagent (Promega) and viability was assayed using the CellTiter-Glo Reagent (Promega) as described in manufacturer’s instructions. Dose–response curves for caspase-3/7 activation and viability were plotted and analyzed (including EC50 and GI50 determination) using GraphPad Prism.

DMS114 = assay: Cell viability assay; assay type: cell-based; details: Homo sapiens, DMS-114, 24 h; DMS114 (Lung); read-out: AZD5991 24h GI50
Protocol: as §1

GIST 430/654 = assay: Cell viability assay; assay type: cell-based; details: 24 h; GIST 430/654 (GI); read-out: AZD5991 24h GI50
Protocol: as §1

H460 = assay: Cell viability assay; assay type: cell-based; details: Homo sapiens, NCI-H460, 24 h; H460 (Lung); read-out: AZD5991 24h GI50
Protocol: as §1

MCF7 = assay: Cell viability assay; assay type: cell-based; details: Homo sapiens, 24 h; MCF7 (Breast); read-out: AZD5991 24h GI50
Protocol: as §1

H1395 = assay: Cell viability assay; assay type: cell-based; details: Homo sapiens, NCI-H1395, 24 h; H1395 (Lung); read-out: AZD5991 24h GI50
Protocol: as §1

Ramos = assay: Cell viability assay; assay type: cell-based; details: Homo sapiens, 24 h; Ramos (NHL); read-out: AZD5991 24h GI50
Protocol: as §1

Pfeiffer = assay: Cell viability assay; assay type: cell-based; details: Homo sapiens, 24 h; Pfeiffer (NHL); read-out: AZD5991 24h GI50
Protocol: as §1

Sudhl5 = assay: Cell viability assay; assay type: cell-based; details: Homo sapiens, SU-DHL-5, 24 h; Sudhl5 (NHL); read-out: AZD5991 24h GI50
Protocol: as §1

OCILY7 = assay: Cell viability assay; assay type: cell-based; details: Homo sapiens, OCI-Ly7, 24 h; OCILY7 (NHL); read-out: AZD5991 24h GI50
Protocol: as §1

LK2 = assay: Cell viability assay; assay type: cell-based; details: Homo sapiens, LK-2, 24 h; LK2 (Lung); read-out: AZD5991 24h GI50
Protocol: as §1

H647 = assay: Cell viability assay; assay type: cell-based; details: Homo sapiens, NCI-H647, 24 h; H647 (Lung); read-out: AZD5991 24h GI50
Protocol: as §1

H1703 = assay: Cell viability assay; assay type: cell-based; details: Homo sapiens, NCI-H1703, 24 h; H1703 (Lung); read-out: AZD5991 24h GI50
Protocol: as §1

OCIM1 [1] = assay: Caspase-3/7 activation assay; assay type: cell-based; details: OCI-M1, 6 h
Protocol: as §1

[2] = Plasma protein binding in fetal calf serum; assay type: in vitro ADME; details: bovine, read-out: plasma protein binding, free
REC1 = assay: Cell viability assay; assay type: cell-based; details: Homo sapiens, 24 h; REC1 (NHL); read-out: AZD5991 24h GI50
Protocol: as §1

OCIAML3 = assay: Caspase-3/7 activation assay; assay type: cell-based; details: Homo sapiens, OCI-AML-3, 6 h
Protocol: as §1

HEL92.1.7 = assay: Cell viability assay; assay type: cell-based; details: Homo sapiens, HEL 92.1.7, 24 h; HEL92.1.7 (AML); read-out: AZD5991 24h GI50
Protocol: as §1

AMO1 = assay: Cell viability assay; assay type: cell-based; details: Homo sapiens, 24 h; AMO1 (MM); read-out: AZD5991 24h GI50
Protocol: as §1

Calu1 = assay: Cell viability assay; assay type: cell-based; details: Homo sapiens, Calu-1, 24 h; Calu1 (Lung); read-out: AZD5991 24h GI50
Protocol: as §1

GRANTA519 = assay: Cell viability assay; assay type: cell-based; details: Homo sapiens, Granta-519, 24 h; GRANTA519 (NHL); read-out: AZD5991 24h GI50
Protocol: as §1

HCC1187 = assay: Cell viability assay; assay type: cell-based; details: Homo sapiens, 24 h; HCC1187 (Breast); read-out: AZD5991 24h GI50
Protocol: as §1

[3] = system: Eμ-Myc lymphoma cells stably expressing human Bfl-1/A1; assay: Apoptosis induction in Eμ-Myc lymphoma cells; details: overexpression of Bfl-1/A1, 24 h
Description: The retroviral plasmids to express human Bcl-2 family members in murine Eμ-Myc lymphoma cells are MSCV-hMCL-1-GFP, MSCV-hBCL-2-GFP, MSCV-hBCL-XL-GFP, MSCV-hBFL-1/A1-GFP, and MSCV-hBCL-w-GFP. To produce viruses, constructs of interest were co-transfected into HEK293T cells with the plasmid encoding the packaging viruses (p-CL-AMPHO provided by Phillip Darcy from Peter MacCallum Cancer Center, Melbourne, Australia) using standard calcium phosphate transient transfection technique. The retroviruses were harvested, filtered and used to infect target cells following standard procedures.
Samples were then centrifuged, washed twice with PBS and analyzed by flow cytometry in a BD LSRFortessa. FACSDiva software was used for data collection and FlowJo software for data analysis.

PL21 = assay: Cell viability assay; assay type: cell-based; details: PL-21, 24 h; PL21 (AML); read-out: AZD5991 24h GI50
Protocol: as §1

OCIM1 [4] = assay: Cell viability assay; assay type: cell-based; details: OCI-M1, 24 h; OCIM1 (AML); read-out: AZD5991 24h GI50
Protocol: as §1

SBC5 = assay: Cell viability assay; assay type: cell-based; details: Homo sapiens, SBC-5, 24 h; SBC5 (Lung); read-out: AZD5991 24h GI50
Protocol: as §1

JJN3 = assay: Cell viability assay; assay type: cell-based; details: Homo sapiens, JJN-3, 24 h; JJN3 (MM); read-out: AZD5991 24h GI50
Protocol: as §1

ME1 = assay: Caspase-3/7 activation assay; assay type: cell-based; details: ME-1, 6 h
Protocol: as §1

G361 = assay: Cell viability assay; assay type: cell-based; details: Homo sapiens, G-361, 24 h; G361 (Skin); read-out: AZD5991 24h GI50
Protocol: as §1

KMS26 = assay: Cell viability assay; assay type: cell-based; details: KMS-26, 24 h; KMS26 (MM); read-out: AZD5991 24h GI50
Protocol: as §1

RT4 = assay: Cell viability assay; assay type: cell-based; details: Homo sapiens, RT-4, 24 h; RT4 (Urology); read-out: AZD5991 24h GI50
Protocol: as §1

Cc1c2c(nn1C)CSCc1cc(n(C)n1)CSc1cc(c3ccccc3c1)OCCCc1c(C(=O)O)n(C)c3c-2c(Cl)ccc13 (atropisomer, axis not shown; (Ra)) [(Ra)-7]
GI50 (SKLU1): 29.9 µM
GI50 (DMS114): 219 nM
GI50 (GIST 430/654): 1620 nM
GI50 (H460): 26.4 µM
GI50 (MCF7): 1350 nM
GI50 (H1395): 12 µM
GI50 (Ramos): 11 nM
GI50 (Pfeiffer): 3.37 µM
GI50 (Sudhl5): 18 nM
GI50 (OCILY7): 24 nM
GI50 (LK2): > 30 µM
GI50 (H647): > 30 µM
GI50 (H1703): 346 nM
EC50 (OCIM1 [1]; read-out: 6h caspase EC50, OCIM1, single agent): > 0.333 µM
EC50 (OCIM1 [1]; read-out: AZD5991 6h EC50, OCIM1 (AML), caspase 3/7 activation): > 30 µM
fraction unbound [2]: 0.001
GI50 (REC1): 728 nM
EC50 (OCIAML3; read-out: 6h caspase EC50, OCIAML3, single agent): > 333 nM
EC50 (OCIAML3; read-out: AZD5991 6h EC50, OCIAML3 (AML), caspase 3/7 activation): 782 nM
GI50 (HEL92.1.7): 1640 nM
GI50 (AMO1): 129 nM
GI50 (Calu1): > 30 µM
GI50 (GRANTA519): 19.3 µM
GI50 (HCC1187): 233 nM
apoptosis-inducing activity [3]: blocked
GI50 (PL21): 403 nM
GI50 (OCIM1 [4]): 27.7 µM
GI50 (SBC5): 541 nM
GI50 (JJN3): 255 nM
EC50 (ME1; read-out: 6h caspase EC50, ME1, single agent): > 333 nM
EC50 (ME1; read-out: AZD5991 6h EC50, ME1 (AML), caspase 3/7 activation): 326 nM
GI50 (G361): 404 nM
GI50 (KMS26): 141 nM
GI50 (RT4): 2400 nM
